# Test results published in patent US5962533A, “Hydroxy polyamines” (priority 1996, dated 1999).
# “And” between values parts separate entries of the source, which are not always exact repeats. Equal entries are not always repeated. Where two headings read alike, the source gives them in different places.
# How the values were obtained:
# [1] = tested on: polyamine transport apparatus; assay: Competition with radiolabeled spermidine for uptake into L1210 cells (Ki); type: cell-based, Murine; conditions: L1210 cells
# Method: The same cell line was utilized to evaluate the tetraamines's competition with radiolabeled spermidine for the polyamine uptake apparatus (Ki). The Ki values here are the concentrations of drugs required to inhibit the uptake of radioactive spermidine transport by 50% (Table 1).
# Uptake Determinations. The polyamine derivatives were studied for their ability to compete with [^3 H]SPD or [^14 C]SPD for uptake into L1210 leukemia cells in vitro. Cell suspensions were incubated in 1 ml of RPMI-1640 containing 1, 2, 4, 6, 8 and 10 μm radiolabeled SPD alone or with the additional presence of 10, 25 and 50 μm polyamine analogue for 20 minutes at 37° C. At the end of the incubation period, tubes were centrifuged at 900 g for 5 minutes at 0-4° C. The pellet was washed twice with 5 ml of cold RPMI-1640 containing 1 mm SPD, dissolved in 200 μl of 1N NaOH at 60° C. for 1 hour, and neutralized with 1N HCl. The material was transferred to a vial for scintillation counting.
# [2] = tested on: castor oil-induced diarrhea; assay: Castor oil-induced diarrhea; type: in vivo, rat; conditions: rat
# Excerpt: Castor Oil-Induced Diarrhea. Male Sprague-Dawley rats (350-400 g) were fasted overnight in hanging wire cages and allowed free access to water.
# [3] = mice, three weeks after a seven day schedule; cited from earlier work
# L1210 cells [4] = assay: Polyamine pool analysis in analogue-treated L1210 cells (HPLC); type: cell-based, Murine
# Method: Polyamine Pool Analysis. While in logarithmic growth, cells were treated with the polyamine derivatives. […] Each supernatant was frozen at -20° C. until analysis by HPLC.
# [5] = Acute toxicity, single intraperitoneal injection; conditions: mouse, in vivo, ip
# NMDA receptor = assay: NMDA assay: specific [3H]MK-801 binding to washed rat cerebral cortical membranes; conditions: 100 μm L-glutamate, 100 μm glycine, 2 nm [3H]MK-801
# Excerpt: FIG. 4 depicts the effects of (HO)2 DEHSPM and DEHSPM on the NMDA receptor (MK-801 binding). Each data point represents the mean ±s.d. of three experiments. Each experiment was, in turn, performed in triplicate. "100% activity" is defined as the amount of specific MK-801 binding to washed rat cerebral cortical membranes in the presence of saturating concentrations of coagonists (100 μm L-glutamate, 100 μm glycine) and 2 nm [^3 H]MK-801.
# NMDA Assay. The procedure for measuring specific binding of [^3 H]MK-801 to the N-methyl-D-aspartate receptor complex was a modification of the method of Ransom and Stec [J. Neurochem., Vol. 51, pages 830-836 (1988)]. Cerebral cortices from young male Sprague-Dawley rats (200-300 g) were homogenized with 10 volumes ice-cold 0.32M sucrose using a motor-driven glass/Teflon homogenizer. The homogenate was centrifuged at 1,000 g for 10 minutes and the pellet was discarded. The supernatant was then centrifuged at 18,000 g for 20 minutes. The 18,000 g pellet was then resuspended in 10 volumes buffer A (5 mm Tris-HCl, pH 7.7) at 4° C., homogenized using high-intensity ultrasound and centrifuged at 8,000 for 20 minutes. The supernatant and upper buffy coat of the pellet were combined and centrifuged at 50,000 g for 20 minutes. The pellet was then resuspended in 10 volumes buffer A and homogenized using high-intensity ultrasound. These resuspended membranes were then centrifuged at 50,000 g, discarding the supernatant. The membranes were washed in this manner an additional three times and stored as a frozen suspension at -80° C. for at least 18 hours, but no longer than 2 weeks before use.
# For binding experiments, frozen membranes were thawed, pelleted at 50,000 g for 20 minutes and washed as described above, except that 20 volumes of buffer A were used for resuspension, for a total of four times. The final pellet was resuspended in buffer B (5 mm Tris-HCl, pH 7.5) at 23° C. The binding assay mixture was 1.00 ml buffer B containing 200-300 μg membrane protein, 100 μm L-glutamate, 100 μm glycine, 2 nm [^3 H]MK-801 and tetraamine at the following concentrations: 0 ("100%+L-glu,+gly-Control") and 0.05, 0.1, 0.5, 1, 5, 10, 50, 100, 500 and 1,000 μm. Non-specific binding was determined using 100 μm MK-801.
# Binding assays were performed in triplicate at 23° C. for one hour and were terminated by filtration through Whatman GF/B glass fiber filters followed by three 4.0 ml rinses of ice-cold buffer B using a Brandel M-48 Cell Harvester.
# L1210 cells [6] = assay: L1210 growth inhibition, IC50 determinations; type: cell-based, Murine; conditions: L1210 cells
# Method: IC50 Determinations. Cells were grown in 25 cm^2 tissue culture flasks in a total volume of 10 ml. Cultures were treated while in logarithmic growth (0.5-1.0×10^5 cells/ml) with the polyamine derivative diluted in sterile water and filtered through a 0.2 μm filter.
# After the indicated time periods, cells were removed from the incubator for counting. Cell number was determined by electronic particle counting (Model ZF coulter counter, Coulter Electronics, Hialeah, Fla.) and confirmed periodically with hemocytometer measurements.
# The percentage of control growth was determined as follows: [formula]
# [7] = Chronic toxicity, one dose per day for five days; type: in vivo; conditions: mouse, in vivo
# Method: In the chronic toxicity regimen, mice were administered the polyamine analogue as one dose per day for five days. Appetite, weight and overall physical appearance were recorded at the time of each injection. After the treatment regimen had been completed, the animals were observed an additional 10 days. The chronic toxicity dosing regimen was set up so that at least one test group was presented with a high fraction of lethalities.
# [8] = Metabolism of (HO)2 DEHSPM v. DEHSPM in mouse liver and kidney (HPLC); type: in vivo
# Method: Metabolism of (HO)2 DEHSPM v. DEHSPM in Mouse Liver and Kidney. […] In ease case, animals were sacrificed for HPLC analysis one day after the final dose.
# HPLC Analysis of Polyamines. Various tissues including the liver and kidney were prepared for HPLC analysis of polyamine content. In order to facilitate their handling, the organs were submerged in liquid nitrogen. Once frozen and weighed, the tissues were homogenized (Tissuemizer, Tekmar, Cincinnati, Ohio) in 1.2N perchloric acid (containing 1,7-diaminoheptane internal standard) in a 1:20 (w/v) ratio. The tissue homogenates were then freeze-thawed three times and stored in a -70° C. freezer until HPLC analysis was performed.
# Each chromatographic assay included calibration standards which were treated in the same manner as the samples. […] The concentration of each polyamine was calculated from the peak area by calibration curves obtained by non-weighted least squares linear regression. Peak area and linear regression calculations were performed on a Macintosh Centris 650 with Rainin Dynamax HPLC Method Manager software (Rainin Instrument Co., Ridgefield, N.J.).
# [9] = 24 h after regimen, normalized for 30 g mouse
# [10] = liver and kidneys, 24 h after regimen, 30 g mouse
# [11] = mouse, one day after subchronic equimolar i.p. regimen
compound,measurement,setting,value
"CCNCCCCNCCCCNCCCCNCC [DEHSPM, Diethylhomospermine]",Ki,"[1]; estimated from Lineweaver-Burke plots, read-out: Ki, [3H]-spermidine transport",1400 nM
same,Ki,"[1]; tetraamine analogues, radiolabeled spermidine uptake, read-out: Ki, actual (Table 1)",1400 nM
same,prevention of castor oil-induced diarrhea,"[2]; 5 mg/kg subcutaneous, six hour assay",effectively prevented the onset of diarrheal stooling
same,stool output / diarrhea during 6 hour assay (FIG. 8),[2]; subcutaneous injection 30 minutes before castor oil 5 ml/kg,virtually no stool output
same,drug administered remaining in liver and kidney as drug or metabolites,[3],35%
same,share of drug remaining in the animal that is in the form of HSPM,[3],90%
same,SPM level relative to untreated controls,"L1210 cells [4]; L1210 cells, 10 μm analogue, 48 hours, control = 100%",60% and 61%
same,N-deethylation by L1210 cells,L1210 cells [4]; in vitro conditions,do not N-deethylate
same,LD50,[5],325 mg/kg
same,concentration showing agonist activity on MK-801 binding,NMDA receptor,0.5-1.0 μm
same,concentrations of maximal antagonism of MK-801 binding,NMDA receptor,≥ 50 μm
same,concentrations showing marked antagonist activity on MK-801 binding,NMDA receptor,above 5 μm
same,IC50,"L1210 cells [6]; 96 h, read-out: IC50 96 h",50 to 90 nM
same,IC50,"L1210 cells [6]; Mus musculus, L1210, 48 h, 48 h, read-out: IC50 48 h",200 nM
same,IC50,"L1210 cells [6]; Mus musculus, L1210, 96 h, 96 h, read-out: IC50 96 h",70 nM
same,greater chronic toxicity of DEHSPM v. DENSPM,[7],4-5 fold
same,LD50,[7]; read-out: chronic LD50,38 mg/kg
same,"% of total dose present as total drug + metabolite, Kidneys",[8]; [9],9.67%
same,"% of total dose present as total drug + metabolite, Liver",[8]; [9],24.15%
same,"% of total dose present as unmetabolized parent drug, Kidneys",[8]; [9],3.14 ± 1.37%
same,"% of total dose present as unmetabolized parent drug, Liver",[8]; [9],1.84 ± 0.53%
same,"Amount of total dose present as dideethylated metabolite HSPM/(HO)2 HSPM, Kidneys",[8]; [9],0.408 µmol
same,"Amount of total dose present as dideethylated metabolite HSPM/(HO)2 HSPM, Liver",[8]; [9],1.394 µmol
same,"Amount of total dose present as total drug + metabolite, Kidneys",[8]; [9],0.604 µmol
same,"Amount of total dose present as total drug + metabolite, Liver",[8]; [9],1.509 µmol
same,"Amount of total dose present as unmetabolized parent drug, Kidneys",[8]; [9],0.196 µmol
same,"Amount of total dose present as unmetabolized parent drug, Liver",[8]; [9],0.115 µmol
same,"% of total dose present as total drug + metabolite, Both Tissues",[8]; [10],33.8% and 33.82%
same,"% of total dose present as unmetabolized parent drug, Both Tissues",[8]; [10],5.0% and 4.98%
same,"Amount of total dose present as dideethylated metabolite HSPM/(HO)2 HSPM, Both Tissues",[8]; [10],1.80 µmol and 1.802 µmol
same,"Amount of total dose present as total drug + metabolite, Both Tissues",[8]; [10],2.11 µmol and 2.113 µmol
same,"Amount of total dose present as unmetabolized parent drug, Both Tissues",[8]; [10],0.313 µmol and 0.311 µmol
same,level of unchanged drug in kidney,[8]; [11],409±178 nmol/g wet weight
same,level of unchanged drug in liver,[8]; [11],43.9±12.6 nmol/g wet weight
